# From patent US20120141448A1, “Method for increasing muscle mass and strength” (priority 2010, published 2012)
# Key:
# [1] = system: known non-responder to creatine supplementation; assay: Creatine non-responder MP: three-week strength training program, total body weight and total strength; format: in vivo, human; details: subject two
# Protocol: B. patient two, 185 cm tall, also a known non-responder to creatine supplementation, followed a three-week strength training program while testing whether supplementation with PA-enriched-lecithin improves creatine response. Total starting total body weight and strength were measured on day one, followed by the training program, consisting of concentric and eccentric isotonic lifting exercises that worked the upper and lower body muscle groups with either free weights or weight machines used once or twice weekly. Strength training was performed three times per week with at least one day of rest between sessions, which alternated between lower and upper body exercises. During the three-week period, a total of […] were performed. Each exercise included two sets of ten repetitions at 40% and 65% 1RM, followed by two sets of 3 to 5 repetitions at 90% 1RM.
# The lower body exercise included seven different exercises: seated leg press, leg curls, standing calf raises, leg extension, inclined leg lift, inverted situps (back extension) and 45° inclined situps. The upper body exercise consisted of seven different exercises: bench press, latissimus pulldown, triceps pulldown, inclined dumbbell curls, seated preacher curls, seated rows, and CyBec Pec Fly. Total upper and lower body weight lifted were calculated as the average weight lifted during the last three sets multiplied by the average repetition in each set. Total strength was determined as the combined lower and upper total weight lifted. […] Strength was measured on days 1 and 22.
# A four-week rest period followed the first three-week training program. The same program was repeated twice, the control was supplemented with creatine monohydrate (Creapure®, Alzchem, Germany) 5 grams per day of five grams creatine monohydrate for 21 days. During the second program, creatine monohydrate was given as for the control program with the addition of 1 gram per day PA-enriched lecithin (Chemi Nutra, White Bear Lake, Minn.) which was about 50% PA.
# [2] = system: known non-responder to creatine supplementation; assay: Creatine non-responder RJ: two-week strength training program, total body weight and total strength; format: in vivo, human; details: subject one
# Protocol: A. patient one, 198 cm tall, a known non-responder to creatine supplementation, followed a two-week strength training program while testing whether supplementation with PA-enriched-lecithin improves creatine response. Total starting total body weight and strength were measured on day one, followed by the training program, consisting of concentric and eccentric isotonic lifting exercises that worked the upper and lower body muscle groups. Either free weights or weight machines were used once or twice weekly. Strength training was performed three times per week with at least one day of rest between sessions, which alternated between lower and upper body exercises. During the two-week period, a total of six training sessions (three upper and three lower) were performed. Each exercise included two sets of ten repetitions at 30% and 60% 1RM, followed by two sets of 3 to 5 repetitions at 90% 1RM.
# The lower body exercise included seven different exercises: seated leg press, leg curls, standing calf raises, leg extensions, inclined leg lift, inverted situps (back extension) and 45° inclined situps. The upper body exercise consisted of seven different exercises: bench press, latissimus pulldown, triceps pulldown, inclined dumbbell curls, seated preacher curls, seated rows, and CyBec Pec Fly.
# Total upper and lower body weight lifted were calculated as the average weight lifted during the last three sets multiplied by the average repetition in each set. Total strength was determined as the combined lower and upper total weight lifted. Total body weight was determined after day 8 and day 15. Strength was measured on days 1 and 15.
# A four-week rest period followed the first two-week training program. The same program was repeated twice, the control was supplementation of creatine monohydrate (Creapure, Alzchem, Germany) 4 times 5 grams per day for five days of loading, followed by nine days of five grams creatine monohydrate. During the second program, creatine monohydrate was given as for the control program with the addition of PA-enriched lecithin (Chemi Nutra, White Bear Lake, Minn.) which was about 50% PA.
compound,measurement,setting,value
"CN(CC(=O)O)C(=N)N.O [Creatine Supplement, creatine monohydrate]","weight, day 1",[1]; day 1 of three-week program,81.9 kg
same,total strength increase,[1]; day 1 vs day 22,5%
same,"weight, day 10",[1]; day 10 of three-week program,81.5 kg
same,"weight, day 22",[1]; day 22 of three-week program,81.2 kg
same,effect on body weight,[1]; three-week program,not effective in preventing a slight weight loss
same,"weight, day 1",[2]; day 1 of two-week program,88.8 kg
same,total strength increase,[2]; day 1 vs day 15,5%
same,"weight, day 8",[2]; day 8 of two-week program,88.3 kg
same,"weight, day 15",[2]; day 15 of two-week program,88.0 kg
same,effect on body weight,[2]; two-week program,not effective in preventing a slight weight loss
